The nature of data set [1]: Ex vivo biodistribution in healthy BALB/c mice. More on the design: species or system mouse. Here is the method:
Quantification of activity was performed with an automated gamma counter equipped with a 3-in NaI(Tl) detector coupled to a multichannel analyzer (2480 Wizard^2, Perkin Elmer, Zaventem, Belgium). The results were corrected for background signal, physical decay during counting and detector dead time.
All animal experiments were performed in compliance with the Ethical Committee Animal Studies of Medanex Clinic (EC MxCl 2020-163 and EC MxCl 2021-173), the Belgian laboratory animal legislation and the European Communities Council Directive of 22 September 2010 (2010/63/EU). Male BALB/c and NMRI nude mice were purchased from Janvier (Bio Services, Uden, The Netherlands) and housed in ventilated cages under standard laboratory conditions (12 h light/dark cycle) at the animal facility of SCK CEN. All animals had access to food and water ad libitum.
Additionally, similar biodistribution studies were performed with free (unlabeled) [^153Sm]SmCl3 to identify the organs with ^153Sm accumulation in case of release from the complex. […] The mice were sacrificed by an overdose pentobarbital (200 µL of 60 mg/mL) 1, 4, 24 and 72 h post-injection (p.i.) (n = 3–4 per time point). Blood was collected via cardiac puncture. Organs of interest were collected in tared tubes and weighed. The activity in the different organs was measured in the gamma counter. For the calculation of the total activity in the blood, bone and muscle, the masses were assumed to be, respectively, 7, 12 and 40% of the total body mass. Data were expressed as a percentage of injected activity (%IA) and standardized uptake value (SUV). %IA was calculated as (counts per min (cpm) in organ)/(IA converted to cpm) × 100. SUV was calculated as (activity in cpm in organ/weight of organ in g)/(IA/total body weight in g).

Another data set deals with SSTR2 in CA20948 cells. The conditions noted are these: cited from earlier work.
The mark [2] stands for this setting: 1 h p.i., healthy male BALB/c mice, ~2-3 MBq i.v., mean ± SD, n = 3-4.
Where [3] appears, read: 4 h p.i., healthy male BALB/c mice, ~2-3 MBq i.v., mean ± SD, n = 3-4.
Setting [4] is: 24 h p.i., healthy male BALB/c mice, ~2-3 MBq i.v., mean ± SD, n = 3-4.
Setting [5] is: 72 h p.i., healthy male BALB/c mice, ~2-3 MBq i.v., mean ± SD, n = 3-4.
[6] abbreviates: mouse, in vivo, iv, listed as [153Sm]SmCl3.

Where “and” joins values, the source holds several entries; their conditions need not be identical. Equal values may be shown once.

For the compound `[153Sm+3].[Cl-].[Cl-].[Cl-]` [[^153Sm]SmCl3, reference compound], in data set [1] (setting [2]), the “Blood SUV” value was determined as 2.0 ± 0.5, the “Heart SUV” value was 0.7 ± 0.2, the “Lungs %IA” value was 0.9 ± 0.2 %IA and the “Lungs SUV” value amounted to 1.0 ± 0.2. Moreover, in data set [1] (setting [2]), the “Pancreas SUV” value turned out to be 0.2 ± 0.1 and the “Stomach %IA” value stood at 0.5 ± 0.2 %IA. In data set [1] (setting [3]), the “Bone %IA” value was 20.1 ± 6.7 %IA, the “Heart %IA” value is 0.2 ± 0.0 %IA, the “Intestines %IA” value came out at 1.7 ± 0.2 %IA and the “Stomach %IA” value worked out at 0.2 ± 0.0 %IA. In data set [1] (setting [4]), the “Blood %IA” value is 0.2 ± 0.0 %IA, the “Heart SUV” value was found to be 0.2 ± 0.0, the “Intestines %IA” value is 1.0 ± 0.2 %IA and the “Lungs SUV” value amounted to 0.2 ± 0.0. In addition, the “Stomach %IA” value in data set [1] (setting [4]) is 0.2 ± 0.2 %IA. In data set [1] (setting [5]), the “Lungs SUV” value is on record as 0.2 ± 0.0, the “Muscle %IA” value came out at 0.9 ± 0.2 %IA and the “Stomach %IA” value came out at 0.2 ± 0.1 %IA. Also, in data set [1] (mouse, in vivo, iv), the “Bone SUV” value amounted to 3.1 ± 1.3, the “Brain SUV” value is listed as 0.0 ± 0.0, the “Liver SUV” value turned out to be 7.7 ± 1.8 and the “Lungs SUV” value stood at 0.4 ± 0.0. In data set [1] (setting [6]), the “Bone %IA” value was 12.1 ± 0.3 %IA and 17.6 ± 3.7 %IA and 21.9 ± 8.9 %IA; the “Bone SUV” value was 1.7 ± 0.0 and 2.9 ± 1.0 and 2.5 ± 0.5; the “Excreted %IA” value was 26.0 ± 8.0 %IA and 21.4 ± 3.9 %IA and 24.2 ± 4.2 %IA and 34.8 ± 11.6 %IA; the “Intestines %IA” value is 2.4 ± 0.5 %IA and 1.5 ± 0.5 %IA. Besides, in data set [1] (setting [6]), the “Liver %IA” value was 35.9 ± 6.4 %IA and 54.3 ± 5.3 %IA and 53.9 ± 4.2 %IA and 42.9 ± 9.2 %IA; the “Liver SUV” value was 6.9 ± 0.5 and 11.2 ± 1.3 and 10.5 ± 0.8.
Take `O=C([O-])CN(CCN(CC(=O)[O-])CC(=O)[O-])CCN(CC(=O)[O-])CC(=O)[O-].[177Lu+3]` [[^177Lu]Lu-DTPA]: in the data set with SSTR2 in CA20948 cells, the “affinity towards SSTR2” value is “complete lack of affinity”.

The values are drawn from publication PMC9785812 (Pharmaceutics, 2022).
